According to patent US20180332852A1, “Increased Almond Yields with Brassinosteroid Application” (Repar Corporation, priority 2017, published 2018):

What was measured:
[1] = diluted solution; pH should be no greater than 7.0, optimally between 4.0 and 5.0; cited from earlier work
[2] = tested on: Branches of Carmel cultivars (almond); test: Experiment 3: pollen germination, pollen tube length and fruit set after treatment during flowering; format: in vivo, Prunus dulcis; settings: percent of flowers containing germinated pollen, versus control
Experimental: Branches of Carmel cultivars were selected from a mature almond orchard further comprising Solando and Non […] cultivars. During flowering, the selected branches received either a brassinosteroid treatment (BL, EBL, or HBR) (FIGS. 1, 2, and 3) or a gibberellic acid (FIG. 4) treatment. Four hours after treatment the percent of flowers which contained germinated pollen was determined. Twenty-four hours after treatment the length of each pollen tube was measured. Finally, fruit set was tabulated 50 days after fertilization. Results across the brassinosteroids were similar. […] Fruit set at 50 days after flowering was greater in the BR group than either GA3 or control.

[3] = tested on: non Pareil almond tree; test: Experiment 2: effects of HBR on nut size and fruit set in almond trees; format: in vivo, Prunus dulcis; settings: 1 ppm HBR sprayed two weeks after full bloom; final fruit set at harvest
Source text: The effects of HBR on nut size and fruit set were studied in a population of 20 year old almond trees in Paine, Region 6 of Chile. The experimental design used a randomized block pattern with 10 replications of each experimental condition. Each experimental unit was a shoot of a non […] almond tree which was pollinated by bees in Solano and Carmel cultivars. Sufficient bee colonies were used for pollination of the orchard, including trees not receiving an experimental treatment. Flowers at full bloom were tallied and two weeks later the test branches were sprayed with either a control containing just water, a solution containing HBR at a rate of 1 ppm, a 10 ppm solution of HBR, or a solution of 10 ppm HBR and 10 ppm CPPU. Final fruit set on each test branch was taken at harvest. The percentage of fruit set was calculated by dividing the number of fruit per branch by the number of flowers counted before treatment and multiplying the result by 100.

SMILES: CC[C@@H](C(C)C)C(O)C(O)[C@@H](C)[C@H]1CC[C@H]2[C@@H]3COC(=O)[C@H]4C[C@H](O)[C@H](O)C[C@]4(C)[C@H]3CC[C@]12C (stereo in doubt) [HBR, homobrassinolide]
- stability at alkaline pH levels [1]: not stable
- pollen germination after four hours [2]: most effective treatment
- increase of fruit set over control [3]: 21.1%
